We go through 9 compounds from patent publication US9611275B2 (priority 2012, dated 2017).

As a reminder, the Ki is the equilibrium dissociation constant of an inhibitor or competing ligand from its target. Usually Papp stands for a coefficient for how fast a substance crosses the barrier. One may read the EC50 as the concentration at which the effect is half-maximal.

The test system of series [1] is LLC-PK1 cells. Nature of the series: Assay for determination of apparent permeability (Papp), bi-directional transport. The settings on record: comparative compounds described in PCT/US11/059668; LLC-PK1 cells.
Series [2] has as its target human O-GlcNAcase (Homo sapiens (Human), UniProt O60502). Nature of the series: biochemical. The class given is biochemical. The settings on record: read-out: OGA KI.
The nature of series [3]: Assay for determination of apparent permeability (Papp), bi-directional transport. The conditions noted are these: pig, LLC-PK1.
The target in series [4] is O-GlcNAcase in rat PC-12 cells (Rattus norvegicus (Rat), UniProt Q8VIJ5). Nature of the series: cell-based.
Excerpt: Assay for Determination of Cellular Activity for Compounds that Inhibit O-GlcNAcase Activity
Inhibition of O-GlcNAcase, which removes O-GlcNAc from cellular proteins, results in an increase in the level of O-GlcNAcylated protein in cells. An increase in O-GlcNAcylated protein can be measured by an antibody, such as RL-2, that binds to O-GlcNAcylated protein. The amount of O-GlcNAcylated protein:RL2 antibody interaction can be measured by enzyme linked immunosorbant assay (ELISA) procedures.
A variety of tissue culture cell lines, expressing endogenous levels of O-GlcNAcase, can be utilized; examples include rat PC-12, and human U-87, or SK-N-SH cells. In this assay, rat PC-12 cells were plated in 96-well plates with approximately 10,000 cells/well. Compounds to be tested were dissolved in DMSO, either 2 or 10 mM stock solution, and then diluted with DMSO and water in a two-step process using a Tecan workstation. […] To prepare a cell lysate, the media from compound treated cells was removed, the cells were washed once with phosphate buffered saline (PBS) and then lysed for 5 minutes at room temperature in 50 μL of Phosphosafe reagent (Novagen Inc, Madison, Wis.) with protease inhibitors and PMSF. The cell lysate was collected and transferred to a new plate, which was then either coated to assay plates directly or frozen −80° C. until used in the ELISA procedure. If desired, the total protein concentration of samples is determined using 20 μL of the sample using the BCA method.
The plate was sealed and incubated at 37° C. for 2 hr with gentle shaking. The wells were then washed 3-times with 300 μl/well wash buffer. […] The plate was incubated for 60 min at 37° C. with gentle shaking. Each well was then washed 3-times with 300 μl/well wash buffer. The detection reagent was added, 100 μL/well of Amplex Ultra RED reagent (prepared by adding 30 μL of 10 mM Amplex Ultra Red stock solution to 10 ml PBS with 18 μL 3% hydrogen peroxide, H2O2). The detection reaction was incubated for 15 minutes at room temperature and then read with excitation at 530 nm and emission at 590 nm.
The mark [5] stands for this setting: purified human O-GlcNAcase 0.7 nM, pH 7.0, room temperature, Cheng-Prusoff.
The mark [6] stands for this setting: rat PC-12 cells, 24 hours treatment, increase in O-GlcNAcylated protein, read-out: Cell based ELISA EC50.
The mark [7] stands for this setting: comparative compounds described in PCT/US11/059668.

Each structure is given as a SMILES string. Read-outs that look alike come from different tables or passages of the source. A value given as a limit tells only on which side of the number the result lay.

Chain of human O-GlcNAcase (O60502 whole entry): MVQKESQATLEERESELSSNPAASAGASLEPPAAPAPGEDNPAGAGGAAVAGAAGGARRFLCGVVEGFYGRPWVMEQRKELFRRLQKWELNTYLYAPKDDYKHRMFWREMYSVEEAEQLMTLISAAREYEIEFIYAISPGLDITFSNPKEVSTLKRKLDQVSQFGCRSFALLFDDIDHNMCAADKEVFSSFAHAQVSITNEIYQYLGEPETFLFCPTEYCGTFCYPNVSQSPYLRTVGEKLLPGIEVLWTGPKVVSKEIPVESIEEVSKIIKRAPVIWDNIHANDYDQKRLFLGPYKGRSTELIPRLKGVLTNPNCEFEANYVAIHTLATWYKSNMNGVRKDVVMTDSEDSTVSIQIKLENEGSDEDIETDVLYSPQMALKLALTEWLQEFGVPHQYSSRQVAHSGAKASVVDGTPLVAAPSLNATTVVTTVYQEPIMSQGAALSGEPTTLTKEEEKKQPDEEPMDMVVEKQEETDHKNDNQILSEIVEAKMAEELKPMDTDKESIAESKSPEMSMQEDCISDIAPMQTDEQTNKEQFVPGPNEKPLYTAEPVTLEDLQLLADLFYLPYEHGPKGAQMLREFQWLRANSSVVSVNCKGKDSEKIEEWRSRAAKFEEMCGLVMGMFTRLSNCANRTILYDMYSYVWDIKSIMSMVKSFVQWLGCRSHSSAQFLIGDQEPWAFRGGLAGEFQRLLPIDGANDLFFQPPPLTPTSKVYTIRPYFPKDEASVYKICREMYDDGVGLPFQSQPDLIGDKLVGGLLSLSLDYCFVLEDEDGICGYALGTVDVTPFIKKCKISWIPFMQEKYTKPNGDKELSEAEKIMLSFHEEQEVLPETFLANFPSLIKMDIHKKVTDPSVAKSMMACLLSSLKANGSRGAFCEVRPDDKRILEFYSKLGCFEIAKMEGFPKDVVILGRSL
Chain of O-GlcNAcase in rat PC-12 cells (Q8VIJ5 whole entry): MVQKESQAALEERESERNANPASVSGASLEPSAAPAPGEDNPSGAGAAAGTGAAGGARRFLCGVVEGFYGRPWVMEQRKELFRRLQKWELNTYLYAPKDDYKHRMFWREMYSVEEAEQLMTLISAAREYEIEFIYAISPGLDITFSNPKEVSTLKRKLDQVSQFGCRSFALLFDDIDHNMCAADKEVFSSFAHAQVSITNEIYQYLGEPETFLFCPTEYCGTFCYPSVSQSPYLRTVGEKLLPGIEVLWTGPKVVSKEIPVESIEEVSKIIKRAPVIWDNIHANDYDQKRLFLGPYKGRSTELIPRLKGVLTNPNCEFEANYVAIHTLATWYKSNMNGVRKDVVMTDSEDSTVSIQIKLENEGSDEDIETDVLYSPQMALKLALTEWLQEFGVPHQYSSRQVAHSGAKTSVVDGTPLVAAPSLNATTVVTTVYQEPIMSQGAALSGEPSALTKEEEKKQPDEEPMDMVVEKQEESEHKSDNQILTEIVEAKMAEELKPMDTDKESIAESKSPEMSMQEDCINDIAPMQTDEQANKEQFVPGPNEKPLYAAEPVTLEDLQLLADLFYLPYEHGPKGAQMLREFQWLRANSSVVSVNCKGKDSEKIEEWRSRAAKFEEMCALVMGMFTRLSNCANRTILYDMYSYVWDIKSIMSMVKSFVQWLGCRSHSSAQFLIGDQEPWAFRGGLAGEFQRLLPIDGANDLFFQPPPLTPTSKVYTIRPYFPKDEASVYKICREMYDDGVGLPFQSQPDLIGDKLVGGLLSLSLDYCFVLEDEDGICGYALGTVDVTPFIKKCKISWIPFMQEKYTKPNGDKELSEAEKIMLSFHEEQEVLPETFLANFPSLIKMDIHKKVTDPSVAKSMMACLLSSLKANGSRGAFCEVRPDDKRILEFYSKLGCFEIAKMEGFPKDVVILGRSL

For `CO[C@@H](C)[C@H]1O[C@@H]2SC(N(C)C)=N[C@@H]2[C@@H](O)[C@@H]1O` [Example 11, (3aR,5S,6S,7R,7aR)-2-(dimethylamino)-5-((S)-1-methoxyethyl)-5,6,7,7a-tetrahydro-3aH-pyrano[3,2-d]thiazole-6,7-diol], the “Papp (X10-6 cm/sec)” value in series [1] was 1.6 X10-6 cm/sec.

In the case of `CN(C)C1=N[C@@H]2[C@@H](O)[C@H](O)[C@@H]([C@H](OCc3ccccc3F)C(F)(F)F)O[C@@H]2S1` [Example 62, (3aR,5S,6S,7R,7aR)-2-(dimethylamino)-5-((S)-2,2,2-trifluoro-1-(2-fluorobenzyloxy)ethyl)-5,6,7,7a-tetrahydro-3aH-pyrano[3,2-d]thiazole-6,7-diol], the Ki in series [2] was determined as 0.96 nM. Besides, the “Papp (X10-6 cm/sec)” value in series [1] was 1.7 X10-6 cm/sec. In addition, the Papp at 3 h, 1 μM in series [3] was found to be 31.1 ×10⁻⁶ cm/s.

Consider `CN(C)C1=N[C@@H]2[C@@H](O)[C@H](O)[C@@H]([C@@H](OCc3ccc(C(F)(F)F)cc3)C(F)(F)F)O[C@@H]2S1` [Example 66, (3aR,5S,6S,7R,7aR)-2-(dimethylamino)-5-((R)-2,2,2-trifluoro-1-(4-(trifluoromethyl)benzyloxy)ethyl)-5,6,7,7a-tetrahydro-3aH-pyrano[3,2-d]thiazole-6,7-diol], for which the Ki in series [2] stood at 2.32 nM. Moreover, the EC50 in series [4] worked out at 13.5 nM. Also, in series [3], the Papp at 3 h, 1 μM came to 28.2 ×10⁻⁶ cm/s.

On to `CN(C)C1=N[C@@H]2[C@@H](O)[C@H](O)[C@@H]([C@@H](OCc3ccc(CCF)cc3)C(F)(F)F)O[C@@H]2S1` [Example 70, (3aR,5S,6S,7R,7aR)-2-(dimethylamino)-5-((R)-2,2,2-trifluoro-1-(4-(2-fluoroethyl)benzyloxy)ethyl)-5,6,7,7a-tetrahydro-3aH-pyrano[3,2-d]thiazole-6,7-diol], for which, in series [2] (setting [5]), the Ki was 0.61 nM. Besides, the EC50 in series [4] (setting [6]) was 17.8 nM. Moreover, the Papp at 3 h, 1 μM in series [3] was found to be 29.5 ×10⁻⁶ cm/s.

On to `CN(C)C1=N[C@@H]2[C@@H](O)[C@H](O)[C@@H]([C@@H](OCc3ccc(CCCF)cc3)C(F)(F)F)O[C@@H]2S1` [Example 71, (3aR,5S,6S,7R,7aR)-2-(dimethylamino)-5-((R)-2,2,2-trifluoro-1-(4-(3-fluoropropyl)benzyloxy)ethyl)-5,6,7,7a-tetrahydro-3aH-pyrano[3,2-d]thiazole-6,7-diol], for which the Ki in series [2] (setting [5]) came to 0.78 nM. In addition, the EC50 in series [4] (setting [6]) was 30.8 nM. The Papp at 3 h, 1 μM in series [3] worked out at 34.6 ×10⁻⁶ cm/s.

`CCCO[C@H]([C@H]1O[C@@H]2SC(NC)=N[C@@H]2[C@@H](O)[C@@H]1O)C(F)(F)F` [Example 79, (3aR,5S,6S,7R,7aR)-2-(methylamino)-5-((R)-2,2,2-trifluoro-1-propoxyethyl)-5,6,7,7a-tetrahydro-3aH-pyrano[3,2-d]thiazole-6,7-diol]: the Ki in series [2] (setting [5]) was 3.77 nM. Also, in series [4] (setting [6]), the concentration for a half-maximal effect (EC50) came out at 173 nM. Also, the Papp at 3 h, 1 μM in series [3] came to 20.4 ×10⁻⁶ cm/s.

`CNC1=N[C@@H]2[C@@H](O)[C@H](O)[C@@H]([C@@H](OCc3ccc(F)cc3)C(F)(F)F)O[C@@H]2S1` [Example 89, (3aR,5S,6S,7R,7aR)-2-(methylamino)-5-((R)-2,2,2-trifluoro-1-(4-fluorobenzyloxy)ethyl)-5,6,7,7a-tetrahydro-3aH-pyrano[3,2-d]thiazole-6,7-diol]: the Ki in series [2] (setting [5]) is 1.44 nM. Moreover, the EC50 in series [4] (setting [6]) is 57.4 nM. Besides, in series [3], the Papp at 3 h, 1 μM was 25.4 ×10⁻⁶ cm/s.

Take `CNC1=N[C@@H]2[C@@H](O)[C@H](O)[C@@H]([C@@H](OCc3ccc(Cc4ccccc4)cc3)C(F)(F)F)O[C@@H]2S1` [Example 95, (3aR,5S,6S,7R,7aR)-5-((R)-1-(4-benzylbenzyloxy)-2,2,2-trifluoroethyl)-2-(methylamino)-5,6,7,7a-tetrahydro-3aH-pyrano[3,2-d]thiazole-6,7-diol]: the Ki in series [2] (setting [7]) was determined as 0.16 nM. Further, the “Papp (X10-6 cm/sec)” value in series [1] is <1.0 X10-6 cm/sec.

As for `CNC1=N[C@@H]2[C@@H](O)[C@H](O)[C@@H]([C@H](C)OC)O[C@@H]2S1` [Example 111, (3aR,5S,6S,7R,7aR)-5-((S)-1-methoxyethyl)-2-(methylamino)-5,6,7,7a-tetrahydro-3aH-pyrano[3,2-d]thiazole-6,7-diol], the Ki in series [2] (setting [7]) was 4.26 nM. In series [1], the “Papp (X10-6 cm/sec)” value is 2.7 X10-6 cm/sec.
